Broadly, the MIC is the smallest concentration in the dilution series that meets the test's criterion for growth inhibition. The low end stands for a more susceptible organism, the high end for a less susceptible organism.

Common to all, as to type: functional
Assay [1] deals with Aeromonas veronii. Kind of assay: Antimicrobial activity against QnrS2-negative Aeromonas veronii CECT 4258 harboring GyrA Ser83 and ParC Ser80 mutant gene by Etest.
The subject of assay [2] is Aeromonas veronii. Kind of assay: Antimicrobial activity against QnrS2-negative Aeromonas veronii CECT 4260 harboring GyrA Ser83 and ParC Ser80 mutant gene by Etest.
For assay [3], the system named is Aeromonas veronii. Kind of assay: Antimicrobial activity against QnrS2-positive Aeromonas veronii A272 harboring GyrA Ile83 and ParC Ile80 mutant gene by Etest.
The test system of assay [4] is Escherichia coli. The assay is described as follows: Antimicrobial activity against Escherichia coli J53 by Etest.
The subject of assay [5] is Escherichia coli. Kind of assay: Antimicrobial activity against Escherichia coli J53 harboring QnrS2 and GyrA Ile83 and ParC Ile80 mutant gene by Etest.

In brackets after ≈: the same amount, converted by molar mass.

For the compound `O=C(O)c1cn(C2CC2)c2cc(N3CCNCC3)c(F)cc2c1=O` [CIPROFLOXACIN], the MIC is < 0.02 µg/mL in the assay on Aeromonas veronii [1], < 0.02 µg/mL in the assay on Aeromonas veronii [2], 8 µg/mL (≈ 24.1 µM) against Aeromonas veronii [3] and 0.023 µg/mL (≈ 0.0694 µM) against Escherichia coli [4].

As for `CCn1cc(C(=O)O)c(=O)c2ccc(C)nc21` [NALIDIXIC ACID], the MIC with Aeromonas veronii [1] was < 0.25 µg/mL; against Aeromonas veronii [2], < 0.25 µg/mL; against Aeromonas veronii [3], > 256 µg/mL; against Escherichia coli [4], 4 µg/mL (≈ 17.2 µM); against Escherichia coli [5], > 256 µg/mL.

For the compound `CCn1cc(C(=O)O)c(=O)c2cc(F)c(N3CCNCC3)cc21` [NORFLOXACIN], the MIC in the assay on Aeromonas veronii [1] is < 0.02 µg/mL; in the assay with Aeromonas veronii [2] it was < 0.02 µg/mL; in the assay on Aeromonas veronii [3] it was 12 µg/mL (≈ 37.6 µM); against Escherichia coli [4], 0.19 µg/mL (≈ 0.595 µM); against Escherichia coli [5], 2 µg/mL (≈ 6.26 µM).

Values taken from ChEMBL document CHEMBL1275465, “Plasmid-mediated QnrS2 determinant from a clinical Aeromonas veronii isolate” (2008).
